Each compound was assayed against human LPAR1 (Homo sapiens, UniProt Q92633) (assay: LPAR1 intracellular calcium mobilization assay (antagonist mode)).
Sequence of human LPAR1 (Q92633 whole entry): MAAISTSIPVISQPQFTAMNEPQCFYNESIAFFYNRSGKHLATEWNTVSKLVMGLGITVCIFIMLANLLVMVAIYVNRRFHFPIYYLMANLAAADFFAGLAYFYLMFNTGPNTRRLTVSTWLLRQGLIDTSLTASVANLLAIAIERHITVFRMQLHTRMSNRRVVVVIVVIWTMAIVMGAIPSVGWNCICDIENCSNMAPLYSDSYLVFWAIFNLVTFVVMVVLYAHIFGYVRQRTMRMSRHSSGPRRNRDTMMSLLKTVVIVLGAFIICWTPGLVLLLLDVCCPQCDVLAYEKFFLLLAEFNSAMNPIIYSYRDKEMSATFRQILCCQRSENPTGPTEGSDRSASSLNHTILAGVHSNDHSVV
Cc1nc(-c2nnn(C)c2NC(=O)OC2c3ccccc3CC2F)ccc1NS(C)(=O)=O (centres unmarked) [Compound 73, 2-fluoro-2,3-dihydro-1H-inden-1-yl (1-methyl-4-(6-methyl-5-(methylsulfonamido)pyridin-2-yl)-1H-1,2,3-triazol-5-yl)carbamate] showed an EC50 of 3220 nM. For Cc1nc(-c2nnn(C)c2NC(=O)OC(C)c2nccnc2Cl)ccc1NS(C)(=O)=O (centres unmarked) [Compound 76, 1-(3-chloropyrazin-2-yl)ethyl (1-methyl-4-(6-methyl-5-(methylsulfonamido)pyridin-2-yl)-1H-1,2,3-triazol-5-yl)carbamate], the EC50 was 929 nM. In the case of CC(OC(=O)Nc1c(-c2ccc(NS(C)(=O)=O)cn2)nnn1C)c1c(F)cccc1Cl (centres unmarked) [Compound 120, 1-(2-chloro-6-fluorophenyl)ethyl (1-methyl-4-(5-(methylsulfonamido)pyridin-2-yl)-1H-1,2,3-triazol-5-yl)carbamate], the EC50 is reported as 87 nM. C[C@@H](OC(=O)Nc1c(-c2ccc(NS(C)(=O)=O)c(F)n2)nnn1C)c1cccnc1Cl [Compound 153, (R)-1-(2-chloropyridin-3-yl)ethyl (4-(6-fluoro-5-(methylsulfonamido)pyridin-2-yl)-1-methyl-1H-1,2,3-triazol-5-yl)carbamate] gave an EC50 of 207 nM. Cc1nc(-c2nnn(C)c2NC(=O)O[C@H](C)c2ccccc2F)ccc1NS(C)(=O)=O [Compound 93, (R)-1-(2-fluorophenyl)ethyl(1-methyl-4-(6-methyl-5-(methylsulfonamido)pyridin-2-yl)-1H-1,2,3-triazol-5-yl)carbamate] was tested, and the EC50 was 41.3 nM. For CCCCC[C@@H](C)OC(=O)Nc1c(-c2ccc(NS(C)(=O)=O)c(C)n2)nnn1C [Compound 71, (R)-heptan-2-yl (1-methyl-4-(6-methyl-5-(methylsulfonamido)pyridin-2-yl)-1H-1,2,3-triazol-5-yl)carbamate], the EC50 was 1740 nM. Cc1nc(-c2nnn(C)c2NC(=O)O[C@H](C)c2scnc2Cl)ccc1NS(C)(=O)=O [Compound 140, (R)-1-(4-chlorothiazol-5-yl)ethyl (1-methyl-4-(6-methyl-5-(methylsulfonamido)pyridin-2-yl)-1H-1,2,3-triazol-5-yl)carbamate] gave an EC50 of 305 nM. In the case of Cc1nc(-c2nnn(C)c2NC(=O)OC(C)c2cncc(F)c2Cl)ccc1NS(C)(=O)=O (centres unmarked) [Compound 78, 1-(4-chloro-5-fluoropyridin-3-yl)ethyl (1-methyl-4-(6-methyl-5-(methylsulfonamido)pyridin-2-yl)-1H-1,2,3-triazol-5-yl)carbamate], the EC50 is reported as 378 nM. Compound Cc1ccc(C)c([C@@H](C)OC(=O)Nc2c(-c3ccc(NS(C)(=O)=O)c(C)n3)nnn2C)c1 [Compound 27, (R)-1-(2,5-dimethylphenyl)ethyl (1-methyl-4-(6-methyl-5-(methylsulfonamido)pyridin-2-yl)-1H-1,2,3-triazol-5-yl)carbamate] has an EC50 of 57.7 nM. Compound Cc1nc(-c2nnn(C)c2NC(=O)OC(C)c2conc2C)ccc1NS(C)(=O)=O (centres unmarked) [Compound 136, 1-(3-methylisoxazol-4-yl)ethyl (1-methyl-4-(6-methyl-5-(methylsulfonamido)pyridin-2-yl)-1H-1,2,3-triazol-5-yl)carbamate] has an EC50 of 3770 nM. Work on C[C@@H](OC(=O)Nc1c(-c2ccc(NS(C)(=O)=O)c(F)n2)nnn1C)c1ccccc1Cl [Compound 5, (R)-1-(2-chlorophenyl)ethyl (4-(6-fluoro-5-(methylsulfonamido)pyridin-2-yl)-1-methyl-1H-1,2,3-triazol-5-yl)carbamate] yielded an EC50 of 34.3 nM. Work on Cc1nc(-c2nnn(C)c2NC(=O)O[C@H](C)c2cccc(Cl)c2)ccc1NS(C)(=O)=O [Compound 41, (R)-1-(3-chlorophenyl)ethyl (1-methyl-4-(6-methyl-5-(methylsulfonamido)pyridin-2-yl)-1H-1,2,3-triazol-5-yl)carbamate] yielded an EC50 of 65 nM. With Cc1nc(-c2nnn(C)c2NC(=O)O[C@H](C)c2cc(F)ccc2F)ccc1NS(C)(=O)=O [Compound 63, (R)-1-(2,5-difluorophenyl)ethyl (1-methyl-4-(6-methyl-5-(methylsulfonamido)pyridin-2-yl)-1H-1,2,3-triazol-5-yl)carbamate] the EC50 was 23.4 nM. Work on Cc1nc(-c2nnn(C)c2NC(=O)O[C@@H](c2cccc(Cl)c2)C(F)F)ccc1NS(C)(=O)=O [Compound 62, (S)-1-(3-chlorophenyl)-2,2-difluoroethyl (1-methyl-4-(6-methyl-5-(methylsulfonamido)pyridin-2-yl)-1H-1,2,3-triazol-5-yl)carbamate] yielded an EC50 of 29 nM. Cc1nc(-c2nnn(C)c2NC(=O)O[C@H](C)c2cc(F)ccc2Cl)ccc1NS(C)(=O)=O [Compound 60, (R)-1-(2-chloro-5-fluorophenyl)ethyl (1-methyl-4-(6-methyl-5-(methylsulfonamido)pyridin-2-yl)-1H-1,2,3-triazol-5-yl)carbamate] showed an EC50 of 31.3 nM. C[C@@H](OC(=O)Nc1c(-c2ccc(NS(C)(=O)=O)cn2)nnn1C)c1cc(Cl)sc1Cl [Compound 110, (R)-1-(2,5-dichlorothiophen-3-yl)ethyl (1-methyl-4-(5-(methylsulfonamido)pyridin-2-yl)-1H-1,2,3-triazol-5-yl)carbamate] gave an EC50 of 12.3 nM. Compound COc1nc(-c2nnn(C)c2NC(=O)O[C@H](C)c2ccccc2Cl)ccc1NS(C)(=O)=O [Compound 4, (R)-1-(2-chlorophenyl)ethyl (4-(6-methoxy-5-(methylsulfonamido)pyridin-2-yl)-1-methyl-1H-1,2,3-triazol-5-yl)carbamate] has an EC50 of 61.7 nM. For Cc1nc(-c2nnn(C)c2NC(=O)OCc2cc(F)ccc2F)ccc1NS(C)(=O)=O [Compound 36, 2,5-difluorobenzyl (1-methyl-4-(6-methyl-5-(methylsulfonamido)pyridin-2-yl)-1H-1,2,3-triazol-5-yl)carbamate], the EC50 was 220 nM. Work on CCCn1nnc(-c2ccc(NS(C)(=O)=O)c(C)n2)c1NC(=O)O[C@H](C)c1ccccc1Cl [Compound 12, (R)-1-(2-chlorophenyl)ethyl (4-(6-methyl-5-(methylsulfonamido)pyridin-2-yl)-1-propyl-1H-1,2,3-triazol-5-yl)carbamate] yielded an EC50 of 221 nM. For Cc1nc(-c2nnn(C)c2NC(=O)O[C@H](C)c2cccnc2F)ccc1NS(C)(=O)=O [Compound 128, (R)-1-(2-fluoropyridin-3-yl)ethyl (1-methyl-4-(6-methyl-5-(methylsulfonamido)pyridin-2-yl)-1H-1,2,3-triazol-5-yl)carbamate], the EC50 was 265 nM. Cc1nc(-c2nnn(C)c2NC(=O)O[C@H](C)c2ccccc2Cl)ccc1N(C)S(C)(=O)=O [Compound 86, (R)-1-(2-chlorophenyl)ethyl(1-methyl-4-(6-methyl-5-(N-methylmethylsulfonamido)pyridin-2-yl)-1H-1,2,3-triazol-5-yl)carbamate] gave an EC50 of 55.4 nM. Compound Cc1nc(-c2nnn(C)c2NC(=O)OC(C)c2cnc(Cl)nc2Cl)ccc1NS(C)(=O)=O (centres unmarked) [Compound 133, 1-(2,4-dichloropyrimidin-5-yl)ethyl (1-methyl-4-(6-methyl-5-(methylsulfonamido)pyridin-2-yl)-1H-1,2,3-triazol-5-yl)carbamate] has an EC50 of 1700 nM. With CNc1nc(-c2nnn(C)c2NC(=O)O[C@H](CF)c2ccccc2)ccc1NS(C)(=O)=O [Compound 155, (S)-2-fluoro-1-phenylethyl (1-methyl-4-(6-(methylamino)-5-(methylsulfonamido)pyridin-2-yl)-1H-1,2,3-triazol-5-yl)carbamate] the EC50 was 84.7 nM. C[C@@H](OC(=O)Nc1c(-c2ccc(NS(=O)(=O)NC3CC3)cn2)nnn1C)c1cccnc1Cl [Compound 159, (R)-1-(2-chloropyridin-3-yl)ethyl (4-(5-((N-cyclopropylsulfamoyl)amino)pyridin-2-yl)-1-methyl-1H-1,2,3-triazol-5-yl)carbamate] was tested, and the EC50 was 240 nM. Cc1nc(-c2nnn(C)c2NC(=O)O[C@H](C)c2ccccc2C(F)(F)F)ccc1NS(C)(=O)=O [Compound 98, (R)-1-(2-(trifluoromethyl)phenyl)ethyl (1-methyl-4-(6-methyl-5-(methylsulfonamido)pyridin-2-yl)-1H-1,2,3-triazol-5-yl)carbamate] gave an EC50 of 69.9 nM. For Cc1nc(-c2nnn(C)c2NC(=O)O[C@H](C)c2cscc2Cl)ccc1NS(C)(=O)=O [Compound 138, (R)-1-(4-chlorothiophen-3-yl)ethyl (1-methyl-4-(6-methyl-5-(methylsulfonamido)pyridin-2-yl)-1H-1,2,3-triazol-5-yl)carbamate], the EC50 was 23 nM. Cc1nc(-c2nnn(C)c2NC(=O)O[C@H](CF)c2cc(F)ccc2F)ccc1NS(C)(=O)=O [Compound 45, (S)-1-(2,5-difluorophenyl)-2-fluoroethyl (1-methyl-4-(6-methyl-5-(methylsulfonamido)pyridin-2-yl)-1H-1,2,3-triazol-5-yl)carbamate] gave an EC50 of 55.8 nM. CNS(=O)(=O)Nc1ccc(-c2nnn(C)c2NC(=O)O[C@H](C)c2cc(F)cnc2Cl)nc1 [Compound 162, (R)-1-(2-chloro-5-fluoropyridin-3-yl)ethyl (1-methyl-4-(5-((N-methylsulfamoyl)amino)pyridin-2-yl)-1H-1,2,3-triazol-5-yl)carbamate] was tested, and the EC50 was 81.7 nM. Cc1nc(-c2nnn(C)c2NC(=O)OC(C)c2ccnc(F)c2Cl)ccc1NS(C)(=O)=O (centres unmarked) [Compound 77, 1-(3-chloro-2-fluoropyridin-4-yl)ethyl (1-methyl-4-(6-methyl-5-(methylsulfonamido)pyridin-2-yl)-1H-1,2,3-triazol-5-yl)carbamate] was tested, and the EC50 was 79.2 nM. C[C@@H](OC(=O)Nc1c(-c2ccc(NS(C)(=O)=O)c(Cl)n2)nnn1C)c1cccnc1Cl [Compound 154, (R)-1-(2-chloropyridin-3-yl)ethyl (4-(6-chloro-5-(methylsulfonamido)pyridin-2-yl)-1-methyl-1H-1,2,3-triazol-5-yl)carbamate] was tested, and the EC50 was 278 nM. With Cc1ccccc1[C@@H](C)OC(=O)Nc1c(-c2ccc(NS(C)(=O)=O)c(C)n2)nnn1C [Compound 42, (R)-1-(o-tolyl)ethyl (1-methyl-4-(6-methyl-5-(methylsulfonamido)pyridin-2-yl)-1H-1,2,3-triazol-5-yl)carbamate] the EC50 was 46.1 nM. Compound Cc1nc(-c2nnn(C)c2NC(=O)OC(C)c2cccnc2C)ccc1NS(C)(=O)=O (centres unmarked) [Compound 81, 1-(2-methylpyridin-3-yl)ethyl (1-methyl-4-(6-methyl-5-(methylsulfonamido)pyridin-2-yl)-1H-1,2,3-triazol-5-yl)carbamate] has an EC50 of 876 nM.

Reference: US11548871B2, “Triazole carbamate pyridyl sulfonamides as LPA receptor antagonists and uses thereof” (Gilead Sciences, Inc., priority 2019, dated 2023)
